Data from paper PMC1660542, “Structure-based discovery of inhibitors of the YycG histidine kinase: New chemical leads to combat Staphylococcus epidermidis infections” (BMC Microbiology, 2006).
≈ marks a conversion by molar mass, not a printed value. Read-outs that look alike come from different tables or passages of the source.

Experiments:
[1] = test system: S. mutans 128; test: MIC assay (broth dilution in tubes, CLSI); assay type: cell-based, Streptococcus mutans; details: for MIC: Streptococcus mutans, S. mutans 128, read-out: Minimal inhibitory concentration (MIC)
Text: (§1) Staphylococcus epidermidis ATCC12228 and RP62A strains were purchased from the American Type Culture Collection (ATCC, Manassas, USA). Staphylococcus aureus ATCC29213, Escherichia coli ATCC25922 and Pseudomonas aeruginosa ATCC27853 were kindly provided by Dr. Bijie Hu at Zhongshan Hospital (Shanghai, China). S. epidermidis strains se527, se886, se847, seG203, Streptococcus pyogenes strain 144, and Streptococcus mutans strain 128 were all clinical isolates from Zhongshan Hospital and Huashan Hospital (Shanghai, China). If not stated otherwise, S. epidermidis and S. aureus strains were grown at 37°C in tryptic soy broth (TSB, Oxoid) containing 0.25% glucose, E. coli and P. aeruginosa strains were grown at 37°C in Luria-Bertani (LB, Oxoid).
(§2) MIC assays for the antibacterial activities of the compounds were performed according to the broth micro-dilution (in tubes) method of the Clinical and Laboratory Standards Institute (CLSI) of America. The Minimal Bactericidal Concentration (MBC) was obtained by subculturing 100 μl from each negative (no visible bacterial growth) tube from the MIC assay, onto substance-free Mueller-Hinton agar plates. The plates were incubated at 37°C for 24 hours, and the MBC was defined as the lowest concentration of substance which produced subcultures growing no more than five colonies on each plate.

[2] = test system: S. aureus ATCC29213; test: MIC assay (broth dilution in tubes, CLSI); assay type: cell-based, Staphylococcus aureus; details: for MIC: Staphylococcus aureus
Text: as §1, §2

[3] = test system: S. pyogenes 144; test: MIC assay (broth dilution in tubes, CLSI); assay type: cell-based, Streptococcus pyogenes; details: for MIC: Streptococcus pyogenes, S. pyogenes 144, read-out: Minimal inhibitory concentration (MIC)
Text: as §1, §2

[4] = test system: SrrB'; test: Inhibition of SrrB' autophosphorylation (Kinase-Glo); assay type: biochemical, S. epidermidis; details: compound 50 μM, 4 μg protein, 3 μM ATP
[5] = test system: S. epidermidis ATCC12228; test: Minimal bactericidal concentration (MBC) assay; assay type: cell-based; details: Staphylococcus epidermidis
Protocol: as §2

[6] = test system: S. epidermidis RP62A; test: Minimal bactericidal concentration (MBC) assay; assay type: cell-based; details: Staphylococcus epidermidis; S. epidermidis RP62A; read-out: Minimal bactericidal concentration (MBC)
Protocol: as §2

[7] = test system: S. epidermidis RP62A; test: MIC assay (broth dilution in tubes, CLSI); assay type: cell-based; details: Staphylococcus epidermidis, read-out: Minimal inhibitory concentration (MIC)
Text: as §1, §2

[8] = test system: healthy human erythrocytes; test: Erythrocyte hemolysis assay; assay type: cell-based;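 for hemolysis: compounds tested at their MIC and at 4× MIC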
Protocol: (§3) Cytotoxicity of the antibacterial compounds on cultured Vero cell was measured by using the Cell Proliferation Kit I (MTT) (Roche, Indianapolis, USA) according to the manufacturer's protocol. Addition of DMSO (1%) in the medium produced a slight cytotoxicity on Vero cell, which could easily be corrected for. Each assay was performed in quadruplicate and repeated three times. The results were converted to percentage of the control (cells only treated with 1% DMSO) and CC50 (concentrations that produce a 50% cytotoxicity effect on Vero cell) was calculated by the Origin v7.0 software (OriginLab, Northampton, USA). Hemolytic activities of the compounds were determined by using healthy human erythrocytes. The erythrocytes were washed three times in sterile saline and resuspended to 5% prior to the assay. […] Cells without compound treatment and cells with 1% Triton-100 treatment were used as 0% and 100% hemolysis controls, respectively. The cell suspensions were incubated for 1 hour at 37°C and centrifuged at 1000×g for 10 min. Volumes of 100 μl supernatants were transferred to another sterile plate and hemoglobin release from the cells was determined at 570 nm. […] The hemolysis assays were repeated twice.

[9] = Erythrocyte hemolysis assay; assay type: cell-based, human; details: human, 1 hour, 37°C;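 for hemolysis: compounds tested at their MIC and at 4× MIC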
Protocol: as §3

[10] = test system: S. epidermidis ATCC12228; test: MIC assay (broth dilution in tubes, CLSI); assay type: cell-based, Staphylococcus epidermidis; details: Staphylococcus epidermidis
Text: as §1, §2

[11] = target: T1, YycG' protein (Staphylococcus epidermidis, UniProt Q8CU87); test: Inhibition of YycG' ATPase activity / autophosphorylation (Kinase-Glo Luminescent Kinase Assay); assay type: biochemical; details: for inhibition at 50 µM: read-out: Inhibition of YycG' phosphorylation (decrease of ATPase activity)
T1 construct: of YycG (370aa to 610aa) was amplified by PCR; His-tag (pET28a) (N); made in house; host or cells: E. coli BL21 (pET28a, pETYycG')
Protocol: The inhibitory activities of the compounds for the ATPase activity of the YycG' protein was measured using the Kinase-Glo™ Luminescent Kinase Assay (Promega, Madison, USA). Briefly, 4 μg YycG' protein was pre-incubated with a series of dilution of compounds in the reaction buffer (40 mM Tris [pH 7.5], 20 mM MgCl2, and 0.1 mg/ml BSA), at 25°C for 30 min. Then 3 μM ATP was added for another incubation of 30 min at 25°C, and Kinase-Glo™ Reagent was added to detect the rest amount of ATP, as recorded from luminescence measurements (RLU). In parallel, theYycG' protein with no addition of compounds was used as the control. The rate of inhibiting protein phosphorylation (Rp) by the compounds was calculated from equation 1:
Rp=RLU(YycG^′+compound+ATP+Reagent)−RLU(YycG^′+ATP+Reagent)/RLU(ATP+Reagent)−RLU(YycG^′+ATP+Reagent)×100% (1) MathType@MTEF@5@5@+=feaafiart1ev1aaatCvAUfKttLearuWrP9MDH5MBPbIqV92AaeXatLxBI9gBaebbnrfifHhDYfgasaacH8akY=wiFfYdH8Gipec8Eeeu0xXdbba9frFj0=OqFfea0dXdd9vqai=hGuQ8kuc9pgc9s8qqaq=dirpe0xb9q8qiLsFr0=vr0=vr0dc8meaabaqaciaacaGaaeqabaqabeGadaaakeaacqqGsbGudaWgaaWcbaGaeeiCaahabeaakiabg2da9maalaaabaGaeeOuaiLaeeitaWKaeeyvauLaeiikaGIaeeywaKLaeeyEaKNaee4yamMafe4raCKbauaacqGHRaWkcqqGJbWycqqGVbWBcqqGTbqBcqqGWbaCcqqGVbWBcqqG1bqDcqqGUbGBcqqGKbazcqGHRaWkcqqGbbqqcqqGubavcqqGqbaucqGHRaWkcqqGsbGucqqGLbqzcqqGHbqycqqGNbWzcqqGLbqzcqqGUbGBcqqG0baDcqGGPaqkcqGHsislcqqGsbGucqqGmbatcqqGvbqvcqGGOaakcqqGzbqwcqqG5bqEcqqGJbWycuqGhbWrgaqbaiabgUcaRiabbgeabjabbsfaujabbcfaqjabgUcaRiabbkfasjabbwgaLjabbggaHjabbEgaNjabbwgaLjabb6gaUjabbsha0jabcMcaPaqaaiabbkfasjabbYeamjabbwfavjabcIcaOiabbgeabjabbsfaujabbcfaqjabgUcaRiabbkfasjabbwgaLjabbggaHjabbEgaNjabbwgaLjabb6gaUjabbsha0jabcMcaPiabgkHiTiabbkfasjabbYeamjabbwfavjabcIcaOiabbMfazjabbMha5jabbogaJjqbbEeahzaafaGaey4kaSIaeeyqaeKaeeivaqLaeeiuaaLaey4kaSIaeeOuaiLaeeyzauMaeeyyaeMaee4zaCMaeeyzauMaeeOBa4MaeeiDaqNaeiykaKcaaiabgEna0kabigdaXiabicdaWiabicdaWiabcwcaLiaaxMaacaWLjaWaaeWaaeaacqaIXaqmaiaawIcacaGLPaaaaaa@A46C@
IC50 (the concentration of inhibition of 50% YycG' protein autophosphorylation) was obtained by using the Origin v7.0 software (OriginLab, Northampton, USA).

[12] = Cytotoxicity on Vero cell (MTT, Cell Proliferation Kit I); assay type: cell-based, African Green-monkey; details: African green monkey, highest concentration tested 200 μM
Protocol: as §3

[13] = test system: Vero cell; test: as above; assay type: cell-based, African Green-monkey; details: highest concentration tested 200 μM
Protocol: as §3

[14] = target: T1, YycG' protein; test: Compound-YycG' protein binding assay (SPR, Biacore 3000); details: SPR
Text: The YycG' fragment containing the cytoplasmic signal domains (the HATPase_c and HisKA domain, see Figure 1A) of YycG (370aa to 610aa) was amplified by PCR (with the chromosomal DNA of S. epidermidis ATCC12228 as the template, and (5' […] 3') and (5' […] 3') as the primers. Subsequently, the fragment was digested with BamHI and XholI (TAKARA, Japan) and ligated into the corresponding sites of pET28a (Promega, Madison, USA) to obtain pETYycG'. The expressed YycG' protein was purified with the ProBond™ Purification System (Invitrogen, California, USA), according to the manufacturer's protocol.
The in vitro binding affinities of the inhibitor compounds to the YycG' protein was determined using surface plasmon resonance (SPR) biosensor technology on the dual flow cell Biacore 3000 instrument (Biacore AB, Uppsala, Sweden) with a similar method as described in our previous study. Immobilization of the YycG' protein to the hydrophilic carboxymethylated dextran matrix of the sensor chip CM5 (Biacore) was carried out by the standard primary amine coupling reaction. […] The equilibrium constants (KD) evaluating the protein-ligand binding affinity were determined by the steady state or the kinetic state affinity fitting model encoded in the Biacore analysis software.

[15] = S. aureus ATCC29213, read-out: Minimal inhibitory concentration (MIC)
[16] = S. epidermidis RP62A (biofilm-forming strain)
[17] = erythrocytes (5% suspension), at 4 × MIC (number in parenthesis)
[18] = erythrocytes (5% suspension), at MIC for S. epidermidis ATCC12228
[19] = ATCC12228, Table 2, as tested on S. epidermidis ATCC 12228, read-out: MICs
[20] = S. epidermidis ATCC12228 (non-biofilm-forming strain), read-out: Minimal inhibitory concentration (MIC)
[21] = 4 μg YycG' protein, 3 μM ATP, read-out: IC50 for YycG'
[22] = compound 50 μM, 4 μg protein, 3 μM ATP

T1 sequence (Q8CU87 370-610): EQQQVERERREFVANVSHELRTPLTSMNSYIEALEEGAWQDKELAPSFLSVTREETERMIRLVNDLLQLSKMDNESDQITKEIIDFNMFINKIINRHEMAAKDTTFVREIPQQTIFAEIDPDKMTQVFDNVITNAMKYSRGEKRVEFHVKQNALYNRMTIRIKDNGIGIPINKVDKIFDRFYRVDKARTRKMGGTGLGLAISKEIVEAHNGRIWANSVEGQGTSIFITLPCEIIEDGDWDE

Compound	MIC [1] [µM]	Inhibitory effect against S. aureus [2]	MIC [2, 15] [µM]	Inhibitory effect against Streptococcus pyogenes [3]	MIC [3] [µM]	Inhibition of SrrB' phosphorylation [4] [%]	MBC [5] [µM]	MBC [6] [µM]	MIC [7, 16] [µM]	hemolysis at 1 h [9, 17] [%]	hemolysis at 1 h [9, 18] [%]	MIC [10, 19] [µM]	MIC [10, 20] [µM]	IC50 [11, 21] [µM]	inhibition at 50 µM [11, 22] [%]	other results
CCc1ccccc1N=C1SC(=Cc2ccc(OCC(O)O)c(OC)c2)C(=O)N1c1ccccc1CC [Compound 2]	100 (≈ 51.9 µg/mL)	effective	25 (≈ 13 µg/mL)	effective	100 (≈ 51.9 µg/mL)	3	100 (≈ 51.9 µg/mL)	100 (≈ 51.9 µg/mL)	25 (≈ 13 µg/mL)	~6	2.3	25 (≈ 13 µg/mL)	25 (≈ 13 µg/mL)	29	61	Inhibitory effect against Streptococcus mutans [1]: effective; Hemolysis ([8]; at 4 × MIC (number in parenthesis), 1 hour, 37°C): 6.1%; Hemolytic activity ([8]; at the highest concentration (200 μM)): ~ 16 % of the zero control
CC(=O)Nc1ccccc1C(=O)Nc1ccc2cc3ccc(NC(=O)c4ccccc4NC(C)=O)cc3nc2c1 [Compound 3]	> 200	inhibited the growth	100 (≈ 53.2 µg/mL)	inhibited the growth	25 (≈ 13.3 µg/mL)	5	50 (≈ 26.6 µg/mL)	100 (≈ 53.2 µg/mL)	25 (≈ 13.3 µg/mL)	0.5	< 0.1	12.5 (≈ 6.64 µg/mL)	12.5 (≈ 6.64 µg/mL)	15	70	CC50 ([12]; Vero cells): < 200 µM; CC50 [13]: 152 µM
CCOc1cccc(N2C(=O)/C(=C\c3ccc(OCc4ccc(F)cc4)c(Br)c3)C(=O)NC2=S)c1 [Compound 6]																MIC ([2]; ATCC29213, read-out: Minimal inhibitory concentration (MIC)): > 200 µM; CC50 [12]: > 200 µM; MIC ([7]; RP62A): 100 µM (≈ 55.5 µg/mL); hemolysis at 1 h ([9]; at 4 × MIC (number in parenthesis)): 2.3%; hemolysis at 1 h ([9]; at MIC for S. epidermidis ATCC12228): 1.1%; Binding to the YycG' protein [14]: only bound very poorly; MIC ([10]; ATCC12228, read-out: MICs): 100 µM (≈ 55.5 µg/mL); MIC ([10]; ATCC12228, read-out: Minimal inhibitory concentration (MIC)): 100 µM (≈ 55.5 µg/mL); IC50 [11]: > 200 µM; inhibition at 50 µM [11]: ~7%
